The test system of assay [1] is Ba/F3 cells harboring BCR-ABL T315I. The experiment in a line: Ba/F3 proliferation, BCR-ABL T315I. The assay is classed as cell-based. As to conditions: 48 hrs, IL-3 withdrawn. The protocol: (§1) IL-3 was subsequently withdrawn from these populations.
(§2) Final concentrations of each compound were 10 μM, 1 μM, 100 nM, 10 nM, 1 nM, 0.1 nM, 0 nM (plus a blank-media only).

The subject of assay [2] is untransduced Ba/F3 cells grown in the presence of IL-3. The assay can be described thus: Ba/F3 proliferation, parental cells (Cell Titer Glo). The assay is classed as cell-based. As to conditions: 48 hrs, with IL-3. The protocol: as §1, §2
(In general: In ATP-based viability assays light output follows the ATP content of the culture.)

The test system of assay [3] is Ba/F3 cells harboring BCR-ABL E255K. The assay can be described thus: Ba/F3 proliferation, BCR-ABL E255K. Particulars: 48 hrs, IL-3 withdrawn. It counts as cell-based.
The test system of assay [4] is Ba/F3 cells harboring BCR-ABL F359V. The assay can be described thus: Ba/F3 proliferation, BCR-ABL F359V. As to conditions: 48 hrs, IL-3 withdrawn. The assay is classed as cell-based.
Assay [5] relates to Ba/F3 cells harboring BCR-ABL E255V. The experiment in a line: Ba/F3 proliferation, BCR-ABL E255V. Particulars: 48 hrs, IL-3 withdrawn. It counts as cell-based. The protocol:
as §1, §2

Assay [6] concerns JCV laboratory strain MAD-1. The experiment in a line: JCV antiviral potency in Cos 7 cells. The assay is classed as cell-based, JC polyomavirus (JCV).
The subject of assay [7] is BCR-ABL. As to conditions: cited from earlier work.
Assay [8] has as its system Ba/F3 cells harboring BCR-ABL Y253H. The assay can be described thus: Ba/F3 proliferation, BCR-ABL Y253H. The assay is classed as cell-based. Particulars: 48 hrs, IL-3 withdrawn. The procedure:
as §1, §2

Assay [9] has as its target c-Abl1 (Homo sapiens (Human), UniProt P00519). The assay can be described thus: c-Abl1 IC50 (FAM-labeled peptide kinase assay). It counts as biochemical.
Experimental: Measurement of c-Abl1, c-Abl2 and c-Kit IC50 Values
For the assay of enzyme inhibitions, 5 μl of each well from the intermediate plate is transferred to a 384-well plate in duplicates, 10. […] Then enzyme substrate is added as 10 μl of 2.5×FAM-labeled peptide+ATP solution to each well of the 384-well assay plate. The reaction is allowed to proceed at 28° C. and quenched with the addition of 25 μl of stop buffer. The release of fluorescent FAM is quantitated as Percent inhibition=(max−conversion)/(max−min)*100. ? “max” stands for DMSO control; “min” stands for low control. Data are fit in XLFit excel add-in version 4.3.1 to obtain IC50 values. Equation used is: Y=Bottom+(Top−Bottom)/(1+(IC50/X)^HillSlope)

Chain of c-Abl1 (P00519 whole entry): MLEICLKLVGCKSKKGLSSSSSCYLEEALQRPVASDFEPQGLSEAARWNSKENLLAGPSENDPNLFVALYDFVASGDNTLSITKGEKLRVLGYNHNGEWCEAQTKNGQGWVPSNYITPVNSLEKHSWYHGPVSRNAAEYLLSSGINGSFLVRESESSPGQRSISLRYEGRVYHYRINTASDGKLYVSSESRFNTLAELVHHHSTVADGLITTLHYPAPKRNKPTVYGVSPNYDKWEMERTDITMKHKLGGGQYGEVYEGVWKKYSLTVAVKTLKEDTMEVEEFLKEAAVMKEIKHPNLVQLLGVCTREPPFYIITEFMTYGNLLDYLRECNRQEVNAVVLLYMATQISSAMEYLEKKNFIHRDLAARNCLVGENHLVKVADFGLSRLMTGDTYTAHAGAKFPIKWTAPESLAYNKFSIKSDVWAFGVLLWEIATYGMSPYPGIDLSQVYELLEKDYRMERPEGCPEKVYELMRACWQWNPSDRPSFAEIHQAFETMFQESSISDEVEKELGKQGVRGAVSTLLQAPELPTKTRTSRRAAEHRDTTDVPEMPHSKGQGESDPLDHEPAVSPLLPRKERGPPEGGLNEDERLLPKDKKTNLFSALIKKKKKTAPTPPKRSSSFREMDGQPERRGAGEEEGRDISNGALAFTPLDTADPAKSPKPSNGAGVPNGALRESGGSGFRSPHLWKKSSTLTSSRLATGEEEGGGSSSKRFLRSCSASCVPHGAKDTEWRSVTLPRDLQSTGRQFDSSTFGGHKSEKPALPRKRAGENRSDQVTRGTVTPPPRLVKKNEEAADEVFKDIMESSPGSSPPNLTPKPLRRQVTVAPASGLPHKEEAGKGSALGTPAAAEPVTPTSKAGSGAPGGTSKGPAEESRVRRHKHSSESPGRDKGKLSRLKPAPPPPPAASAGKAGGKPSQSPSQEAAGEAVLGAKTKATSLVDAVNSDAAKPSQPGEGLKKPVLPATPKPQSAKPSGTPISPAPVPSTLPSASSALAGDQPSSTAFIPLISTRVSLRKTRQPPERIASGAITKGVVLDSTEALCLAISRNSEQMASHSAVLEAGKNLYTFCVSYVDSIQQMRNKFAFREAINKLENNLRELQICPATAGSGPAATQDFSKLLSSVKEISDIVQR

For `Cc1ccc(NC(=O)c2ccc(CN3CCN(C)CC3)cc2)cc1Nc1nccc(-c2cncc(-c3ccn(C)n3)c2)n1` [Compound 832], the concentration for half-maximal inhibition (IC50) came to 2590 nM in [1]; 2480 nM in assay [2]; 90.9 nM in assay [3]; 46.7 nM in assay [4]; 661 nM in assay [5].

For `Cc1ccc(-c2cncc(-c3ccnc(Nc4cc(NC(=O)c5ccc(CN6CCN(C)CC6)cc5)ccc4C)n3)c2)nc1` [Compound 820], the IC50 came to 2300 nM in assay [1]; 2480 nM in assay [2]; 204 nM in assay [3]; 260 nM in assay [4]; 2670 nM in assay [5].

As to `Cc1ccc(NC(=O)c2ccc(CN3CCN(C)CC3)cc2)cc1Nc1nccc(-c2cncc(C3=NN=C(C(=O)Nc4cn[nH]c4)C3)c2)n1` [Compound 118], in assay [6], the “antiviral activity against JCV” value is listed as “little antiviral activity”.

Turning to `Cc1csc(-c2cncc(-c3ccnc(Nc4cc(NC(=O)c5ccc(CN6CCN(C)CC6)cc5)ccc4C)n3)c2)n1` [Compound 8290], the IC50 in [1] is 2480 nM; in [2] it was 2580 nM; in assay [3], 80.4 nM; in assay [4] it was 375 nM; in assay [5] it was 1440 nM.

On to `Cc1cc(-c2cncc(-c3ccnc(Nc4cc(NC(=O)c5ccc(CN6CCN(C)CC6)cc5)ccc4C)n3)c2)sn1` [Compound 8190], for which the half-inhibitory concentration (IC50) in assay [1] was 2680 nM; in assay [2] it was 2240 nM; in [3], 390 nM; in assay [4], 236 nM; in [5] it was 997 nM.

Turning to `Cc1cn(-c2cc(NC(=O)c3ccc(C)c(Nc4nccc(-c5cccnc5)n4)c3)cc(C(F)(F)F)c2)cn1` [Tasigna, nilotinib], the “potency as an inhibitor of BCR-ABL relative to Gleevec” value in assay [7] is at most 20 ×.

`Cc1cc(NC(=O)C2=NN=C(c3cncc(-c4ccnc(Nc5cc(NC(=O)c6ccc(CN7CCN(C)CC7)cc6)ccc5C)n4)c3)C2)ccn1` [Compound 103]: the IC50 was found to be 2910 nM in [1]; 2920 nM in [2]; 196 nM in [3]; 2590 nM in assay [8]; 135 nM in assay [4]; 1200 nM in assay [5].

`Cc1ccc(NC(=O)c2ccc(CN3CCN(C)CC3)cc2)cc1Nc1nccc(-c2cncc(-c3snnc3C)c2)n1` [Compound 8240]: the IC50 in assay [9] was over 1000 nM.

In the case of `Cc1cc(NC(=O)C2=NN=C(c3cncc(-c4ccnc(Nc5cc(NC(=O)c6ccc(CN7CCN(C)CC7)cc6)ccc5C)n4)c3)C2)[nH]n1` [Compound 113], the IC50 in [1] amounted to 2120 nM; in assay [2], 2060 nM; in [3], 46.9 nM; in assay [8] it was 1430 nM; in [4] it was 161 nM; in assay [5] it was 739 nM.

For `Cc1cnc(-c2cncc(-c3ccnc(Nc4cc(NC(=O)c5ccc(CN6CCN(C)CC6)cc5)ccc4C)n3)c2)s1` [Compound 8280], the half-inhibitory concentration (IC50) in [1] is 2770 nM; in assay [2], 2610 nM; in [3], 234 nM; in [4] it was 251 nM; in assay [5], 2390 nM.

Consider `Cc1ccc(NC(=O)c2ccc(CN3CCN(C)CC3)cc2)cc1Nc1nccc(-c2cncc(-c3nccs3)c2)n1` [Compound 8270], for which the IC50 in [1] came out at 2790 nM; in assay [2] it was 2520 nM; in assay [3], 45.9 nM; in assay [4], 203 nM; in [5], 1030 nM.

A word on the IC50: it is the concentration needed to halve the response being measured.

Values taken from patent US10906896B2, “Compositions and methods for inhibiting kinases” (Inhibikase Therapeutics, Inc., priority 2015, dated 2021).
